From PubChem BioAssay (NCI)
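Method: 48-hour compound exposure of cells in 96-well plates, five concentrations, linear interpolation of endpoints. The concentration for 50% growth inhibition is given as GI50. Definition used: TGI = concentration required for complete inhibition of growth.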

What was measured:
Test in all cases: DTP human tumour cell line panel, 48 h
[1] = test system: OVCAR-3 ovarian
[2] = test system: UACC-62 melanoma
[3] = test system: UO-31 renal
[4] = test system: MDA-MB-231 breast
[5] = test system: HCC-2998 colon
[6] = test system: MDA-MB-435
[7] = test system: SK-MEL-2 melanoma
[8] = test system: OVCAR-5 ovarian
[9] = test system: HCT-15 colon
[10] = test system: CAKI-1 renal

Compound	TGI [1] [µM]	TGI [2] [µM]	TGI [3] [µM]	TGI [4] [µM]	TGI [5] [µM]	TGI [6] [µM]	TGI [7] [µM]	TGI [8] [µM]	TGI [9] [µM]	TGI [10] [µM]	GI50 [1] [µM]	GI50 [2] [µM]	GI50 [3] [µM]	GI50 [4] [µM]	GI50 [5] [µM]	GI50 [6] [µM]	GI50 [7] [µM]	GI50 [8] [µM]	GI50 [9] [µM]	GI50 [10] [µM]
CN(C)C(=S)/N=c1\ssc(=S)n1Cc1ccco1	9.58	> 59.3	> 100	84.2	> 100	1.95	30.3	> 100	> 100	> 100	–	–	–	–	–	–	–	–	–	–
O=C(NCc1ccco1)C1CCN(S(=O)(=O)c2ccc(Cl)cc2)CC1	> 100	> 100	> 100	> 100	> 100	> 100	> 100	> 100	> 100	> 100	> 100	80.5	86.6	> 100	> 100	35.4	> 100	> 100	39.6	> 100
NC(Cc1cccnn1)C(=O)O (centres undefined)	> 100	> 100	> 100	> 100	> 100	> 100	> 100	> 100	> 100	> 100	–	–	–	–	–	–	–	–	–	–
CCC[n+]1cc2cc3c(cc2c2c1-c1cc4c(cc1C2)OCO4)OCO3 (tested in a mixture with another compound)	4.81	1.7	33.8	12.1	2.14	2.29	2.35	29	> 100	> 91.8	0.894	0.465	3.14	2.39	0.504	0.785	0.53	8.85	28.2	25.8
COc1ccc(/C=C2\COc3ccc(O)c(O)c3C2=O)cc1OC	3.31	2.86	2.19	5.55	3.31	3.78	5.28	3.8	5.73	2.98	0.539	1.19	0.789	1.48	1.76	1.32	2.02	1.73	0.488	1.22
COc1c(B(O)O)cccc1-c1nc2ccc3[nH]ncc3c2c2c1CCCC2	12.3	10.2	14.3	25.1	6.12	12.1	8.78	25.2	14.2	0.252	3.43	2.71	0.262	0.0201	2.35	3.45	3.4	2.45	2.88	0.0171
Cc1ccc(NC(=S)C#N)c(C)c1	> 100	> 100	> 100	> 100	> 100	> 100	> 100	> 100	> 100	> 100	–	–	–	–	–	–	–	–	–	–
CC(C)(C)C(=O)c1c(C(F)(F)F)n([O-])c2cc(Cl)c(Cl)cc2[n+]1=O	0.363	2.77	0.805	2.9	0.465	1.01	2.28	2.19	0.652	0.639	0.125	1.46	0.403	1.44	0.172	0.515	0.903	0.642	0.257	0.248
C[C@H]1COCCN1c1nc(-c2cnc(N)cc2C(F)F)nc(N2CCOCC2)n1	> 100	0.401	> 100	48.5	15.1	5.27	1.12	> 100	> 100	–	0.224	0.0794	0.047	0.177	0.186	0.182	0.232	0.188	0.183	0.102
CCN(CC)S(=O)(=O)c1cccc(-c2ccc3c(NC(=O)C4CC4)n[nH]c3c2)c1	> 6.25	> 6.25	> 6.25	> 6.25	> 6.25	> 6.25	> 6.25	> 6.25	> 6.25	> 6.25	1.9	2.28	3.97	2.84	> 6.25	0.283	1.85	5.69	2.4	2.28
CCn1cc(C(=O)N/N=C/c2cccs2)c(=O)c2cc(F)c(N3CCNC(C)C3)c(F)c21 (centres undefined)	3.35	2.96	2.96	2.85	3.44	3.24	3.95	2.97	2.82	3.03	1.8	1.61	1.52	1.52	1.8	1.78	1.96	1.59	1.47	1.66
c1cc(C2CCCCC2)ccc1-c1cnc2nonc2n1	1.97	1.96	2.44	4.01	2.94	0.65	3.62	4.04	2.26	3.18	0.557	0.393	1.18	1.33	1.47	0.237	1.31	1.7	0.438	1.08
COc1cccc(N2CCN(c3ncnc4cc[nH]c34)CC2)c1	> 100	39.8	> 100	> 100	> 100	19	50.9	> 100	> 100	> 100	9.51	6.05	7.37	79.9	7.19	2.73	10.3	43.6	24.4	5.75
O=C(N=Nc1c(Cl)c(O)c2ccccc2c1O)C(=O)Nc1cccc(C(F)(F)F)c1	4.64	16.2	12.2	12.9	22.9	3.43	20.5	28.6	12	23.7	1.77	3.33	1.53	1.6	10.4	1.89	7.22	14.7	3.21	8.66
C=CCC(N[C@H](CO)c1ccccc1)c1ccccn1 (some centres undefined)	> 100	> 100	> 100	> 100	> 100	> 100	> 100	> 100	> 100	> 100	> 100	> 100	> 100	> 100	> 100	> 100	> 100	> 100	> 100	> 100
